Counter-ions that a name gives are not always drawn. Each block holds one compound with its values, some of them ahead of it. Residues, ends and D or L forms follow the SMILES beside them.
Columns and labels:
Cathepsin C = target: T1, Cathepsin C (Homo sapiens, UniProt P53634); assay: Protease panel: Cathepsin C; assay type: biochemical; conditions: supplement panel table, test and control compound
T1 construct: Reaction Biology Corporation (contract testing)

Cathepsin B = target: T2, Cathepsin B (Homo sapiens, UniProt P07858); assay: Protease panel: Cathepsin B; assay type: biochemical; conditions: supplement panel table, test and control compound
T2 construct: Reaction Biology Corporation (contract testing)

Cathepsin V = Cathepsin V (Homo sapiens, UniProt O60911); assay: Protease panel: Cathepsin V; assay type: biochemical; conditions: supplement panel table, test and control compound
Calpain 1 = target: T3, Calpain 1 (Homo sapiens, UniProt P07384); assay: Protease panel: Calpain 1; assay type: biochemical; conditions: supplement panel table, test and control compound
T3 construct: Reaction Biology Corporation (contract testing)

Cathepsin L = Cathepsin L (Homo sapiens, UniProt P07711); assay: Protease panel: Cathepsin L; assay type: biochemical; conditions: supplement panel table, test and control compound
Chain of Cathepsin L (P07711 114-333, species assumed): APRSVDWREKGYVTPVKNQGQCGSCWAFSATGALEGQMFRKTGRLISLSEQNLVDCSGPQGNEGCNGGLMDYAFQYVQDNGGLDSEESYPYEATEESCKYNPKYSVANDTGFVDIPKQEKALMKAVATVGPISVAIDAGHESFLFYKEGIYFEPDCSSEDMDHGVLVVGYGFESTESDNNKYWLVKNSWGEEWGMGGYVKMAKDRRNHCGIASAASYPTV

Papain = target: T4, Papain (Carica papaya, UniProt P00784); assay: Protease panel: Papain; assay type: biochemical; conditions: supplement panel table, test and control compound
T4 construct: Reaction Biology Corporation (contract testing)
T4 sequence (P00784 134-345): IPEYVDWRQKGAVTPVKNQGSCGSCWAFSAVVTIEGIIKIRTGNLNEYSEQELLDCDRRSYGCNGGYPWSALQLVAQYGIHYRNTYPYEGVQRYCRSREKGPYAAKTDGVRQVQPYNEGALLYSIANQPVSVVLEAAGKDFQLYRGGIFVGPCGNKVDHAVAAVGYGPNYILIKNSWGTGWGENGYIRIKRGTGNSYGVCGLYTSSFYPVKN

Cathepsin H = Cathepsin H (Homo sapiens, UniProt P09668); assay: Protease panel: Cathepsin H; assay type: biochemical; conditions: supplement panel table, test and control compound
Cathepsin S = Cathepsin S (Homo sapiens, UniProt P25774); assay: Protease panel: Cathepsin S; assay type: biochemical; conditions: supplement panel table, test and control compound
Chain of Cathepsin S (P25774 115-331, species assumed): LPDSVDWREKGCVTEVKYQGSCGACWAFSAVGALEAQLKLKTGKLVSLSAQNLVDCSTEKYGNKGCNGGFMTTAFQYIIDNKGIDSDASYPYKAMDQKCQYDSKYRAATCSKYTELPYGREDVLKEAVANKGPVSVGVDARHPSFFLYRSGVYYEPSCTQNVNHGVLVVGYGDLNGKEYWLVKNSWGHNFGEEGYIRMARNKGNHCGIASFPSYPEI

Caspase 7 = target: T5, Caspase 7 (Homo sapiens, UniProt P55210); assay: Protease panel: Caspase 7; assay type: biochemical; conditions: supplement panel table, test and control compound
T5 construct: Reaction Biology Corporation (contract testing)

ADAM10 = target: T6, ADAM10 (Homo sapiens, UniProt O14672); assay: Protease panel: ADAM10; assay type: biochemical; conditions: supplement panel table, test and control compound
T6 construct: Reaction Biology Corporation (contract testing)

MMP 7 = MMP 7 (Homo sapiens, UniProt P09237); assay: Protease panel: MMP 7; assay type: biochemical; conditions: supplement panel table, test and control compound
Procedure: (§1) Protease panel testing was carried out by Reaction Biology Corporation.

MMP 12 = target: T7, MMP 12 (Homo sapiens, UniProt P39900); assay: Protease panel: MMP 12; assay type: biochemical; conditions: supplement panel table, test and control compound
T7 construct: Reaction Biology Corporation (contract testing)
T7 sequence (P39900 106-470, species assumed): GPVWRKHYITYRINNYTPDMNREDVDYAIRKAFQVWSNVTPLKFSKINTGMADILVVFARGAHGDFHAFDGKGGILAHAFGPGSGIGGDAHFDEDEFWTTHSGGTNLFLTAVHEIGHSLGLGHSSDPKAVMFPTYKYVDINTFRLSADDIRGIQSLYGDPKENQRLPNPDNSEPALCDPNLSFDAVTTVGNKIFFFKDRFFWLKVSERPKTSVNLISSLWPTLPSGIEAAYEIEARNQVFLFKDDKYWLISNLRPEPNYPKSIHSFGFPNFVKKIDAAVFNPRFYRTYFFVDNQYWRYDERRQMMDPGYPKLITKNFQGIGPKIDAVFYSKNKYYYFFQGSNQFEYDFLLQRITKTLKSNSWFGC
Procedure: as §1

MMP 14 = MMP 14 (Homo sapiens, UniProt P50281); assay: Protease panel: MMP 14; assay type: biochemical; conditions: supplement panel table, test and control compound
Procedure: as §1

MMP 3 = MMP 3 (Homo sapiens, UniProt P08254); assay: Protease panel: MMP 3; assay type: biochemical; conditions: supplement panel table, test and control compound
Procedure: as §1

TACE = TACE (Homo sapiens, UniProt P78536); assay: biochemical
MMP 13 = MMP 13 (Homo sapiens, UniProt P45452); assay: biochemical
Kallikrein 14 = Kallikrein 14 (Homo sapiens, UniProt Q9P0G3); assay: Protease panel: Kallikrein 14; assay type: biochemical; conditions: supplement panel table, test and control compound
Chain of Kallikrein 14 (Q9P0G3 41-267, species assumed): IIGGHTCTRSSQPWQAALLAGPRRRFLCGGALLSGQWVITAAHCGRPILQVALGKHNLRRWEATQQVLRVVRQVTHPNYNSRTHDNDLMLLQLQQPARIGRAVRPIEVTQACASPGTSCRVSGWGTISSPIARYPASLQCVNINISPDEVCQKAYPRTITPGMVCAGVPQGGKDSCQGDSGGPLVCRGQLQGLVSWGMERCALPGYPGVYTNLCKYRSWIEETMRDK

Kallikrein 12 = Kallikrein 12 (Homo sapiens, UniProt Q9UKR0); assay: Protease panel: Kallikrein 12; assay type: biochemical; conditions: supplement panel table, test and control compound
Chain of Kallikrein 12 (Q9UKR0 18-248, species assumed): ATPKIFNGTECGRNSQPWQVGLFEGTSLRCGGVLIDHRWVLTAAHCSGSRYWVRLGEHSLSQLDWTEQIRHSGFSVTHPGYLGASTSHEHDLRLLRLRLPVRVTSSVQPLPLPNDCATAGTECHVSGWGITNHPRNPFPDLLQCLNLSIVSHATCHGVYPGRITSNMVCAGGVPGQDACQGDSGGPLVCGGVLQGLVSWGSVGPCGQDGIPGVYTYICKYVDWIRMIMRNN

Tryptase g1 = target: T8, Tryptase g1 (Homo sapiens, UniProt Q9NRR2); assay: Protease panel: Tryptase g1; assay type: biochemical; conditions: supplement panel table, test and control compound
T8 construct: Reaction Biology Corporation (contract testing)
T8 sequence (Q9NRR2 20-321): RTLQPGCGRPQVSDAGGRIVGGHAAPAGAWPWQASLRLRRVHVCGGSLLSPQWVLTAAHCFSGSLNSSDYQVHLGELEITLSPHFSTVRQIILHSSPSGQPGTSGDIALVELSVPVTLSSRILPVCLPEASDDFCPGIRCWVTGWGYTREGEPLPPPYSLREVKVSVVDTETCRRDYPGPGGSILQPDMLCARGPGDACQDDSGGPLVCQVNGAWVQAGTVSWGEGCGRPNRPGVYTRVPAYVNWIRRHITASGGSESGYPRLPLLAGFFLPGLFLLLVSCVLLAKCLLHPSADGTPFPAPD

Plasma kallikrein = target: T9, Plasma kallikrein (Homo sapiens, UniProt P03952); assay: Protease panel: Plasma kallikrein; assay type: biochemical; conditions: supplement panel table, test and control compound
T9 construct: Reaction Biology Corporation (contract testing)

Thrombin a = target: T10, Thrombin a (Homo sapiens, UniProt P00734); assay: Protease panel: Thrombin a; assay type: biochemical; conditions: supplement panel table, test and control compound
T10 construct: Reaction Biology Corporation (contract testing)

Matriptase 2 = Matriptase 2 (Homo sapiens, UniProt Q8IU80); assay: Protease panel: Matriptase 2; assay type: biochemical; conditions: supplement panel table, test and control compound
Trypsin = assay: Protease panel: Trypsin; assay type: biochemical; conditions: supplement panel table, test and control compound
Urokinase = target: T11, Urokinase (Homo sapiens, UniProt P00749); assay: Protease panel: Urokinase; assay type: biochemical; conditions: supplement panel table, test and control compound
T11 construct: Reaction Biology Corporation (contract testing)

FXa = target: T12, FXa (Homo sapiens, UniProt P00742); assay: Protease panel: FXa; assay type: biochemical; conditions: supplement panel table, test and control compound
T12 construct: FXa serine peptidase
T12 sequence (P00742 235-488 limits assumed): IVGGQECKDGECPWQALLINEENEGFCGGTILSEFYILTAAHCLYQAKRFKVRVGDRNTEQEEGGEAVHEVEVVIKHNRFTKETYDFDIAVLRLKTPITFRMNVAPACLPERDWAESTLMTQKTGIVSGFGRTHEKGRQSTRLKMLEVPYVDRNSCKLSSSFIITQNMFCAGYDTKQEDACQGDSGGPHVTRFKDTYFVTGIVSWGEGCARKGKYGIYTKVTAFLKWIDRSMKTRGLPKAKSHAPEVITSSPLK
T12 sequence (P00742 41-179 partner limits assumed): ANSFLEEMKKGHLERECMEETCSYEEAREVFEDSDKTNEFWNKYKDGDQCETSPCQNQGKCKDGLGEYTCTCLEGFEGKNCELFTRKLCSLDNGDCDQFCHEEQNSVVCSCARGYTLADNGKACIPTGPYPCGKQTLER

Tryptase b2 = target: T13, Tryptase b2 (Homo sapiens, UniProt P20231); assay: Protease panel: Tryptase b2; assay type: biochemical; conditions: supplement panel table, test and control compound
T13 construct: Reaction Biology Corporation (contract testing)

Kallikrein 5 = Kallikrein 5 (Homo sapiens, UniProt Q9Y337); assay: Protease panel: Kallikrein 5; assay type: biochemical; conditions: supplement panel table, test and control compound
Chain of Kallikrein 5 (Q9Y337 23-293, species assumed): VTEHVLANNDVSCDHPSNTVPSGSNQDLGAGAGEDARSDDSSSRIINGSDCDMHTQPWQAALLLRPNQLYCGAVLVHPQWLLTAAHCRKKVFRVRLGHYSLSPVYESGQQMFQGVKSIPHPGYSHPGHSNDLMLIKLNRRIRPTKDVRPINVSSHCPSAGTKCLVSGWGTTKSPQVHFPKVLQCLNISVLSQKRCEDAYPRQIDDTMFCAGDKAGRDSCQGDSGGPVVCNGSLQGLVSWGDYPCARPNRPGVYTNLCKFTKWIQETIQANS

Elastase = assay: Protease panel: Elastase; assay type: biochemical; conditions: supplement panel table, test and control compound
Kallikrein 13 = Kallikrein 13 (Homo sapiens, UniProt Q9UKR3); assay: Protease panel: Kallikrein 13; assay type: biochemical; conditions: supplement panel table, test and control compound
Plasmin = target: T14, Plasmin (Homo sapiens, UniProt P00747); assay: Protease panel: Plasmin; assay type: biochemical; conditions: supplement panel table, test and control compound
T14 construct: Reaction Biology Corporation (contract testing)
T14 sequence (P00747 581-810 limits assumed, species assumed): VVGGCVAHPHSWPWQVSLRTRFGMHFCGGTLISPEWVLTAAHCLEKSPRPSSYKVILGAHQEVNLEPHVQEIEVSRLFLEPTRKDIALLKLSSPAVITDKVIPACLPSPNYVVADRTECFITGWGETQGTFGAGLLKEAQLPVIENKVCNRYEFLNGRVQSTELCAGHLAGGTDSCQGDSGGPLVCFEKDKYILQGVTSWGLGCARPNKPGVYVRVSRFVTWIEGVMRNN
T14 sequence (P00747 97-580 partner limits assumed, species assumed): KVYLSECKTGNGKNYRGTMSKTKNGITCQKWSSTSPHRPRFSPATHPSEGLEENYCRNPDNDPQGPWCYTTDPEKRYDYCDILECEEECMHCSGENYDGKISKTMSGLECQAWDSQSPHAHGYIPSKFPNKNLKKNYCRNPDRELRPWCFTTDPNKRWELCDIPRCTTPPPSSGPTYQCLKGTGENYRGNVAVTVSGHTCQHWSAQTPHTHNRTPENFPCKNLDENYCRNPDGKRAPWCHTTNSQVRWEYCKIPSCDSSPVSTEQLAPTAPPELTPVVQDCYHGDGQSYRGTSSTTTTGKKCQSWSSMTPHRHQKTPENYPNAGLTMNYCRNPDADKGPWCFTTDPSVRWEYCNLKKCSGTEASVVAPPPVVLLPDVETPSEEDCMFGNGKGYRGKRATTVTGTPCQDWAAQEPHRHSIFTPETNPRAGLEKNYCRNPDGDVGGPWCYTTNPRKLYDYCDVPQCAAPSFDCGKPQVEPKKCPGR

Kallikrein 7 = Kallikrein 7 (Homo sapiens, UniProt P49862); assay: Protease panel: Kallikrein 7; assay type: biochemical; conditions: supplement panel table, test and control compound
Caspase 5 = target: T15, Caspase 5 (Homo sapiens, UniProt P51878); assay: Protease panel: Caspase 5; assay type: biochemical; conditions: supplement panel table, test and control compound
T15 construct: Reaction Biology Corporation (contract testing)

Caspase 9 = target: T16, Caspase 9 (Homo sapiens, UniProt P55211); assay: Protease panel: Caspase 9; assay type: biochemical; conditions: supplement panel table, test and control compound
T16 construct: Reaction Biology Corporation (contract testing)
T16 sequence (P55211 whole entry, species assumed): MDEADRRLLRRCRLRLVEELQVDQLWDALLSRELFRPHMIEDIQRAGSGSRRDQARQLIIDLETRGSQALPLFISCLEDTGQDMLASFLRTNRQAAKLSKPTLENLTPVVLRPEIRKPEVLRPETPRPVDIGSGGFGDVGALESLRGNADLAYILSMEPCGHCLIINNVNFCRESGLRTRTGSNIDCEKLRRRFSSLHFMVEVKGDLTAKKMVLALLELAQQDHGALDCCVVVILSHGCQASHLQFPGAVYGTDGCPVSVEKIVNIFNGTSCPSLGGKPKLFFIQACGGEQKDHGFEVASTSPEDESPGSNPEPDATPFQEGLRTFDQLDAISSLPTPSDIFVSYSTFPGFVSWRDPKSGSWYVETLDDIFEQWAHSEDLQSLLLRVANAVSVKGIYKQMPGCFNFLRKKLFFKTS

Caspase 1 = target: T17, Caspase 1 (Homo sapiens, UniProt P29466); assay: Protease panel: Caspase 1; assay type: biochemical; conditions: supplement panel table, test and control compound
T17 construct: Reaction Biology Corporation (contract testing)
T17 sequence (P29466 120-404, species assumed): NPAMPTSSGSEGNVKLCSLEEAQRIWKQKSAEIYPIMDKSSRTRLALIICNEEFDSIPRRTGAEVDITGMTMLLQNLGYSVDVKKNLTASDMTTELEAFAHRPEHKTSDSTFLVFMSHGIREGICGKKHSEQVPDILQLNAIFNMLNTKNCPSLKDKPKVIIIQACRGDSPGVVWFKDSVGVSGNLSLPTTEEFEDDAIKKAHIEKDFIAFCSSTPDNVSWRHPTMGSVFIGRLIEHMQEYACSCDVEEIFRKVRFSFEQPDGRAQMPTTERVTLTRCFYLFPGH

Caspase 4 = target: T18, Caspase 4 (Homo sapiens, UniProt P49662); assay: Protease panel: Caspase 4; assay type: biochemical; conditions: supplement panel table, test and control compound
T18 construct: Reaction Biology Corporation (contract testing)

Caspase 2 = target: T19, Caspase 2 (Homo sapiens, UniProt P42575); assay: Protease panel: Caspase 2; assay type: biochemical; conditions: supplement panel table, test and control compound
T19 construct: Reaction Biology Corporation (contract testing)

Caspase 10 = target: T20, Caspase 10 (Homo sapiens, UniProt Q92851); assay: Protease panel: Caspase 10; assay type: biochemical; conditions: supplement panel table, test and control compound
T20 construct: Reaction Biology Corporation (contract testing)

Caspase 11 = target: T21, Caspase 11 (Mus musculus, UniProt P70343); assay: Protease panel: Caspase 11; assay type: biochemical; conditions: supplement panel table, test and control compound
T21 construct: Reaction Biology Corporation (contract testing)

Caspase 8 = target: T22, Caspase 8 (Homo sapiens, UniProt Q14790); assay: Protease panel: Caspase 8; assay type: biochemical; conditions: supplement panel table, test and control compound
T22 construct: Reaction Biology Corporation (contract testing)

Kallikrein 1 = Kallikrein 1 (Homo sapiens, UniProt P06870); assay: Protease panel: Kallikrein 1; assay type: biochemical; conditions: supplement panel table, test and control compound
Chain of Kallikrein 1 (P06870 25-262, species assumed): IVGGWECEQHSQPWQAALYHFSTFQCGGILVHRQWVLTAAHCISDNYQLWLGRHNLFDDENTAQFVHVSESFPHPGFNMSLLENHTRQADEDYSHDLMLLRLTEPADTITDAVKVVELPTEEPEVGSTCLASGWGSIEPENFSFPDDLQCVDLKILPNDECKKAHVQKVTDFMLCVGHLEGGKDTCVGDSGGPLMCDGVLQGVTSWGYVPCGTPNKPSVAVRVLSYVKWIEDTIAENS

Neprilysin = target: T23, Neprilysin (Homo sapiens, UniProt P08473); assay: Protease panel: Neprilysin; assay type: biochemical; conditions: supplement panel table, test and control compound
T23 construct: Reaction Biology Corporation (contract testing)
T23 sequence (P08473 whole entry, species assumed): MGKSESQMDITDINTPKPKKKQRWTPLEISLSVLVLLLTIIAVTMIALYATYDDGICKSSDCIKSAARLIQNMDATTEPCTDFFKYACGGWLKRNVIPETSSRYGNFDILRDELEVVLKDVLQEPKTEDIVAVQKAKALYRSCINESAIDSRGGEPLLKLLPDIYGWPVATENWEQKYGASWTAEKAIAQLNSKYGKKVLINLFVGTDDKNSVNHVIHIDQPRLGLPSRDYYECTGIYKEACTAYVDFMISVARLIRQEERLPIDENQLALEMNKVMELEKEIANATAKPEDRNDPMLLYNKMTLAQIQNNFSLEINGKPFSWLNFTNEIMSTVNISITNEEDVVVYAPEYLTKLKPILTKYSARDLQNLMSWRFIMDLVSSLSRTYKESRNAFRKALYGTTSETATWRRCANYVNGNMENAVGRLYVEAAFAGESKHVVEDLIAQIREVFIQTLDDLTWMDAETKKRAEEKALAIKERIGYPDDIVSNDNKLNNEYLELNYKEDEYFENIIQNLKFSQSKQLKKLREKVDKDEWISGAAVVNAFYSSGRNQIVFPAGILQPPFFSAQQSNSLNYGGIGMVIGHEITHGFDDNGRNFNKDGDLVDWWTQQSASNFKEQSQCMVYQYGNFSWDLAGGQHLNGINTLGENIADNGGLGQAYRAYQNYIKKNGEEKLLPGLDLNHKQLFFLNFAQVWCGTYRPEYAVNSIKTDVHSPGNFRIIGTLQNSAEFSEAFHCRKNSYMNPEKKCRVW
Procedure: as §1

Structure (SMILES): CC(=O)N[C@@H](CC(=O)O)C(=O)N[C@@H](CCC(=O)O)C(=O)N[C@H](C(=O)N[C@H](C=O)CC(=O)O)C(C)C [DEVD-CHO]
IC50 (Caspase 7): 0.0011 µM

Structure (SMILES): CCOC(=O)c1ccc(OC(=O)CCCCCN=C(N)N)cc1 [Gabexate mesylate (GM), Gabexate mesylate]
IC50 (Kallikrein 14): 0.969 µM
IC50 (Kallikrein 12): 0.351 µM
IC50 (Tryptase g1): 0.0506 µM
IC50 (Plasma kallikrein): 0.475 µM
IC50 (Thrombin a): 3.73 µM
IC50 (Matriptase 2): 7.56 µM
IC50 (Trypsin): 0.0669 µM
IC50 (Urokinase): 0.1 µM
IC50 (FXa): 5.3 µM
IC50 (Tryptase b2): 0.0873 µM
IC50 (Kallikrein 5): 8.06 µM
IC50 (Elastase): 1.81 µM
IC50 (Kallikrein 13): 17.6 µM
IC50 (Plasmin): 0.936 µM
IC50 (Kallikrein 7): 29.3 µM

Structure (SMILES): CC[C@H](C)[C@H](NC(C)=O)C(=O)N[C@@H](CCC(=O)O)C(=O)N[C@H](C(=O)N[C@H](C=O)CC(=O)O)[C@@H](C)O [IETD-CHO] (Ac-IETD-aldehyde)
IC50 (Caspase 5): 0.0213 µM
IC50 (Caspase 9): 0.0553 µM
IC50 (Caspase 1): 0.0545 µM
IC50 (Caspase 4): 2.73 µM
IC50 (Caspase 2): 0.626 µM
IC50 (Caspase 10): 0.0177 µM
IC50 (Caspase 11): 0.68 µM
IC50 (Caspase 8): 0.00166 µM

Structure (SMILES): CC(=O)N[C@@H](CC(C)C)C(=O)N[C@@H](CC(C)C)C(=O)N[C@H](C=O)CCCNC(=N)N [Leupeptin, reference compound]
IC50 (Kallikrein 1): 26.7 µM

Structure (SMILES): CC(C)C[C@H](NP(=O)(O)O[C@@H]1O[C@@H](C)[C@H](O)[C@@H](O)[C@H]1O)C(=O)N[C@@H](Cc1c[nH]c2ccccc12)C(=O)O [Phosphoramidon]
IC50 (Neprilysin): 0.0422 µM

The next lines start with the values.

IC50 (Cathepsin C): 0.607 µM
IC50 (Cathepsin B): 0.00987 µM
IC50 (Cathepsin V): 0.0118 µM
IC50 (Calpain 1): 0.098 µM
IC50 (Cathepsin L): 0.00999 µM
IC50 (Papain): 0.000936 µM
IC50 (Cathepsin H): 0.198 µM
IC50 (Cathepsin S): 0.00939 µM
Structure (SMILES): CC(C)C[C@H](NC(=O)[C@H]1O[C@@H]1C(=O)O)C(=O)NCCCCN=C(N)N [Compound E64]

IC50 (ADAM10): 0.0811 µM
IC50 (MMP 7): 0.00438 µM
IC50 (MMP 12): 0.00117 µM
IC50 (MMP 14): 0.00124 µM
IC50 (MMP 3): 0.0163 µM
IC50 (TACE): 9.1 nM
IC50 (MMP 13): 0.535 nM
Structure (SMILES): CNC(=O)[C@H](Cc1c[nH]c2ccccc12)NC(=O)[C@@H](CC(=O)NO)CC(C)C [GM6001]

Source: PMC5404560, “Towards Selective Mycobacterial ClpP1P2 Inhibitors with Reduced Activity against the Human Proteasome” (Antimicrobial Agents and Chemotherapy, 2017)
